Results on three molecules are retold here after patent US20050014734A1 (Genovate Biotechnology Co., Ltd., priority 2003, published 2005).

The conditions of data set [1]: polymorph; cited from earlier work.
The conditions of data set [2]: oral administration; cited from earlier work.
The subject of data set [3] is peripheral blood mononuclear cells (PBMCs) from adult male lupus patients. The settings on record: pre-incubation with DHEA, concanavalin A stimulated PBMCs; cited from earlier work.
Another data set concerns IL-1β. The experiment in a line: Serum IL-1β by ELISA in the same SLE study. Format: in vivo, human. Particulars: after 24 weeks of 200 mg/day DHEA orally, mean ± SD, n = 15, before treatment 9.94 ± 8.92. As for the experimental part: (§1) Baseline prednisone (less than 10 mg/day) and other concomitant SLE medications were held constant. The serum levels of cytokines including IL-1, IL-2, interferon-γ, IL-4, and IL-10 were determined by ELISA. The mean change from baseline to 24 weeks of therapy was analyzed. See, below.
(§2) See, Chang et al., Arthritis Rheum., 2002, 46(11):2924-27. The subjects enrolled in the study were adult women with SLE according to American College of Rheumatology (ACR) criteria (see, e.g., Tan, et al., Arthritis Rheum., 1982, 25:1271-7) and who were receiving a prednisone dose (or its corticosteroid equivalent) of 1 to 10 mg/day at the time they entered the study. […]
(§3) Serum testosterone, estradiol and cytokine profiles were measured at baseline and at last visit (i.e., after 24 weeks). Different serum cytokines including […], IL-2, IFN-γ, IL-4, and […] in the subjects were measured using ELISA kits (R&D, Minneapolis, Minn.) according to the manufacturer's instructions.
(§4) Comparisons between groups were done through an independent t-test, while comparisons within groups were done through a paired t-test. All statistical tests were evaluated at a 0.05 level of significance.
Background: ELISA stands for enzyme-linked immunosorbent assay.

The subject of data set [4] is NZB/NZW mouse model of SLE. Particulars: cited from earlier work.
Data set [5] deals with patients with mild to moderate SLE. The settings on record: cited from earlier work.
The test system of another data set is Th2 cells. The settings on record: Th2 cells stimulated by retrovirus infection; cited from earlier work.
For data set [6], the system named is human marrow and mononuclear cells. Particulars: in vitro; cited from earlier work.
Another data set deals with IL-10. In words: Serum IL-10 by ELISA in randomized, double-blind, placebo-controlled study in women with active SLE. Format: in vivo, human. As for the experimental part:
as §1, §2, §3, §4

For another data set, the system named is estradiol. The experiment in a line: Hormone determination: serum estradiol in SLE study. Format: in vivo, human. The settings on record: 200 mg/day DHEA, 24 weeks. As for the experimental part:
See, Chang et al., Arthritis Rheum., 2002, 46(11):2924-27. The subjects enrolled in the study were adult women with SLE according to American College of Rheumatology (ACR) criteria (see, e.g., Tan, et al., Arthritis Rheum., 1982, 25:1271-7) and who were receiving a prednisone dose (or its corticosteroid equivalent) of 1 to 10 mg/day at the time they entered the study. Subjects selected for the study had to have active SLE, as defined by a Systemic Lupus Activity Measure (SLAM) score of ≧7, see, e.g., Liang, et al., Arthritis Rheum., 1989, 32:1107-18, and a baseline Systemic Lupus Erythematosus Disease Activity Index (SLEDAI) score ≧2. See, Bombardier, et al., Arthritis Rheum., 1992, 35:630-40.
Subjects that were under treatment with dydroxychloroquine, azathioprine, methotrexate, or cyclophosphamide or a combination thereof, had to have been on a stable regimen with no change in dose and drug combination for at least 6 weeks prior to entry into the study. Subjects who were receiving androgens, immunoglobulins, cyclosporine A, or other immunosuppressive agents (except those noted) were excluded from the study.
as §3

Where [7] appears, read: 200 mg/day for 12 months, 381 women with mild/moderate SLE.
[8] abbreviates: oral daily doses of 200 mg, mild to moderate SLE, van Vollenhoven et al.

The structures appear in SMILES notation. Entries after “also recorded” stand apart in the source; their conditions may differ. Where two headings read alike, the source gives them in different places.

Take `C[C@]12CC[C@H](O)CC1=CC[C@@H]1[C@@H]2CC[C@]2(C)C(=O)CC[C@@H]12` [DHEA form I, dehydroepiandrosterone]: the Stability result in data set [1] is reported as “highly stable”.

In the case of `C[C@]12CC[C@H](O)CC1=CC[C@@H]1[C@@H]2CC[C@]2(C)C(=O)CC[C@@H]12` [DHEA form II, dehydroepiandrosterone], the Rate of absorption entry in data set [2] is “rapid rate of absorption (greater than the form I polymorph)”. Further, the Stability entry in data set [1] is listed as “stable under typical ambient conditions”.

On to `C[C@]12CC[C@H](O)CC1=CC[C@@H]1[C@@H]2CC[C@]2(C)C(=O)CC[C@@H]12` [DHEA, dehydroepiandrosterone], for which the IL-4 production result in data set [3] is given as “reduced the IL-4 production”. For the same molecule, the IL-1β after treatment with IL-1β stood at 9.20 ± 6.49 pg/mL. Besides, the “Onset of disease and mortality” value in [4] was “significantly delayed onset of disease and a reduction in mortality”. For the same molecule, in data set [5] (setting [7]), the Bone mineral density result is reported as “prevented loss of bone mineral density in a significantly greater proportion of patients than placebo”; the “SLE disease and symptoms” value is “improved or stabilized SLE disease and its symptoms without clinical deterioration”. The Prednisone reduction entry in data set [5] (200 mg/day, women with active lupus, phase II/III, Petri et al. 2002) is “enabled prednisone reduction to physiologic levels in a significantly greater proportion of patients than placebo”. Moreover, in data set [5] (setting [8]), the “Steroid-sparing effect and flares” value was “may have steroid-sparing effects and reduce flares”; the Tolerability result was “well-tolerated”. The Tolerability result in data set [5] (women with lupus, Chang et al. 2002) is reported as “well-tolerated”. In the data set with Th2 cells, the “Production of IL-6 and tumor necrosis factor alpha” value was “suppressed the production of cytokines IL-6 and tumor necrosis factor alpha”. Moreover, in [6], the “Secretion of IL-6” value is “reduce secretion of IL-6”. Besides, in the data set on IL-10 (200 mg/day DHEA for 24 weeks, women with SLE, from baseline), the “Effect on IL-10 level (in words)” value is “significant reduction; also recorded: significant IL-10 suppression”. Further, the IL-10 after treatment with IL-10 (serum, last visit after 24 weeks of 200 mg/day DHEA orally, mean ± SD, n = 15, before treatment 9.21 ± 6.75, p=0.045 vs placebo, p=0.029 vs baseline) came out at 1.89 ± 1.47 pg/mL. Further, the “Estradiol change at last visit, mean” value with estradiol (baseline mean 123) is -48 pg/mL. Moreover, the “Estradiol change at last visit, median” value with estradiol (baseline median 104) is -39 pg/mL. Further, the “Median decrease in estradiol” value with estradiol (placebo 31.5) was found to be 39.3 pg/mL.
